Data reported in US20110071158A1, “NEW COMPOUNDS” (BOEHRINGER INGELHEIM INTERNATIONAL GMBH, priority 2009, published 2011).

Assays:
[1] = target: T1, Xenopus laevis Aurora B/INCENP complex (Xenopus laevis, UniProt Q6DE08); assay: Aurora-B kinase assay (radioactive enzyme inhibition); assay type: biochemical
T1 construct: equipped at the N-terminal position with a GST tag (amino acids 60-361); GST (N, cleaved yes); made in house; host or cells: E. coli BL21 (DE3)
Excerpt: A radioactive enzyme inhibition assay was developed using E. coli-expressed recombinant Xenopus laevis Aurora B wild-type protein equipped at the N-terminal position with a GST tag (amino acids 60-361) in a complex with Xenopus laevis INCENP (amino acids 790-847), which is obtained from bacteria and purified. In equivalent manner a Xenopus laevis Aurora B mutant (G96V) in a complex with Xenopus laevis INCENP^790-847 may also be used.
The coding sequence for Aurora-B^60-361 from Xenopus laevis is cloned into a modified version of pGEX-6T (Amersham Biotech) via BamHI and SalI cutting sites. The vector contains two cloning cassettes which are separated by a ribosomal binding site, allowing bi-cistronic expression. In this configuration Xenopus laevis Aurora B is expressed by the first cassette, and the Xenopus laevis INCENP^790-847 is expressed by the second cassette. The resulting vector is pAUB-IN^847.
First of all the E. coli strain BL21 (DE3) is co-transformed with pUBS520 helper plasmid and pAUB-IN^847, after which protein expression is induced using 0.3 mM IPTG at an OD600 of 0.45-0.7. The expression is then continued for approx. 12-16 h at 23-25° C. with agitation.
The bacteria are then removed by centrifuging and the pellet is lysed in lysis buffer (50 mM Tris/Cl pH 7.6, 300 mM NaCl, 1 mM DTT, 1 mM EDTA, 5% glycerol, Roche Complete Protease Inhibitor tablets) using ultrasound, using 20-30 mL lysis buffer per litre of E. coli culture. The lysed material is freed from debris by centrifugation (12000 rpm, 45-60 min, JA20 rotor). The supernatant is incubated with […] of equilibrated GST Sepharose Fast Flow (Amersham Biosciences) per litre of E. coli culture for 4-5 h at 4° C. Then the column material is washed with 30 volumes of lysis buffer and then equilibrated with 30 volumes of cleavage buffer (50 mM Tris/Cl pH 7.6, 150 mM NaCl, 1 mM DTT, 1 mM EDTA). To cleave the GST tag from Aurora B, 10 units of Prescission Protease (Amersham Biosciences) are used per milligram of substrate and the mixture is incubated for 16 h at 4° C. The supernatant which contains the cleavage product is loaded onto a 6 mL Resource Q column (Amersham Biosciences) equilibrated with ion exchange buffer (50 mM Tris/Cl pH 7.6, 150 mM NaCl, 1 mM DTT, 1 mM EDTA). The Aurora B/INCENP complex is caught as it flows through, then concentrated and loaded onto a Superdex 200 size exclusion chromatography (SEC) column equilibrated with SEC buffer (10 mM Tris/Cl pH 7.6, 150 mM NaCl, 1 mM DTT, 1 mM EDTA). Fractions which contain the AuroraB/INCENP complex are collected and concentrated using Vivaspin concentrators (molecular weight exclusion 3000-5000 Da) to a final concentration of 12 mg/mL. Aliquots (e.g. 240 ng/μL) for kinase assays are transferred from this stock solution into freezing buffer (50 mM Tris/Cl pH 8.0, 150 mM NaCl, 0.1 mM EDTA, 0.03% Brij-35, 10% glycerol, 1 mM DTT) and stored at −80° C.
Test substances are placed in a polypropylene dish (96 wells, Greiner #655 201), in order to cover a concentration frame of 10 μM-0.0001 μM. The final concentration of DMSO in the assay is 5%. 30 μL of protein mix (50 mM Tris/Cl pH 7.5, 25 mM MgCl2, 25 mM NaCl, 167 μM ATP, 10 ng Xenopus laevis Aurora B/INCENP complex in freezing buffer) are pipetted into the 10 μl of test substance provided in 25% DMSO and this is incubated for 15 min at RT. Then 10 μL of peptide mix (100 mM Tris/Cl pH 7.5, 50 mM MgCl2, 50 mM NaCl, 5 μM NaF, 5 μM DTT, 1 μCi gamma-P33-ATP [Amersham], 50 μM substrate peptide [biotin-EPLERRLSLVPDS or multimers thereof, or biotin-EPLERRLSLVPKM or multimers thereof, or biotin-[…]]) are added. The reaction is incubated for 75 min (ambient temperature) and stopped by the addition of 180 μL of 6.4% trichloroacetic acid and incubated for 20 min on ice. […]

PTK2 enzyme = target: T2, PTK2 enzyme (Homo sapiens, UniProt Q05397); assay: PTK2 enzyme test, Assay 1 (DELFIA, poly-Glu-Tyr substrate, antibody PT60); assay type: biochemical; conditions: Assay 1 (values without *); 1 h pre-incubation, 2% DMSO
T2 construct: purchased Invitrogen PV3832
T2 sequence (Q05397 whole entry): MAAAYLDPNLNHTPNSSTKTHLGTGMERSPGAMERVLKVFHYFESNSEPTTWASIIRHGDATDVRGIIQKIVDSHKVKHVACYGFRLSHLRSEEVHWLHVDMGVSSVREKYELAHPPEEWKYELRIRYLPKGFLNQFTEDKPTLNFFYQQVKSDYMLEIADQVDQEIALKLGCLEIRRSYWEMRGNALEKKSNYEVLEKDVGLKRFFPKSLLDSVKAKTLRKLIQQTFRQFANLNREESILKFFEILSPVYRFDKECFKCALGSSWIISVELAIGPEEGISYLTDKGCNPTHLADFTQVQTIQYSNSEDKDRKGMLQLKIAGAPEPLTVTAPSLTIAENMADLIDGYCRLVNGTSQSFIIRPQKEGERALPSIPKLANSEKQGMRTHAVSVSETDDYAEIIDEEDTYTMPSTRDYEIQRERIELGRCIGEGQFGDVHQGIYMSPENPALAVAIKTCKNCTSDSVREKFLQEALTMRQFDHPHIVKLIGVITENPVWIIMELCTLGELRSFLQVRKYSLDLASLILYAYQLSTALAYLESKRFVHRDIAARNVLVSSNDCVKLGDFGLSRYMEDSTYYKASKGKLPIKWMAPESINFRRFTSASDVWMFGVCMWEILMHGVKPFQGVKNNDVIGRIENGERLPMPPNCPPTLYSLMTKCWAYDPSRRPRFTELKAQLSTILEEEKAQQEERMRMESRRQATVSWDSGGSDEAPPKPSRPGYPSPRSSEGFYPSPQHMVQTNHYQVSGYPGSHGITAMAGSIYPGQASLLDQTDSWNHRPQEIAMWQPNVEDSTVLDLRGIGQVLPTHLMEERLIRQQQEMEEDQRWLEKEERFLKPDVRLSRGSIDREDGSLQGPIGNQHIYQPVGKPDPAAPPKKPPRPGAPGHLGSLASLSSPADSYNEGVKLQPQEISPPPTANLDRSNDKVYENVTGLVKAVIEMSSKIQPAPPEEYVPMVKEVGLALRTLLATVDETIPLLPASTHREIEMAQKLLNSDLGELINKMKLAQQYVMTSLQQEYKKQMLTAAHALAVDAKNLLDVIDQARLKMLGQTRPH
Outline: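 Active PTK2 (0.01 µg/well) preincubated 1 h at RT with compound (duplicates, 2% DMSO final), then reacted 1 h at RT with poly(Glu,Tyr) 4:1 plus biotinylated poly(Glu,Tyr) and an ATP mix containing 50 μM ATP. EDTA-stopped, streptavidin-captured product detected by Eu-PT60 anti-phosphotyrosine DELFIA; IC50 by variable-Hill sigmoid fit.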

T1 sequence (Q6DE08 60-361): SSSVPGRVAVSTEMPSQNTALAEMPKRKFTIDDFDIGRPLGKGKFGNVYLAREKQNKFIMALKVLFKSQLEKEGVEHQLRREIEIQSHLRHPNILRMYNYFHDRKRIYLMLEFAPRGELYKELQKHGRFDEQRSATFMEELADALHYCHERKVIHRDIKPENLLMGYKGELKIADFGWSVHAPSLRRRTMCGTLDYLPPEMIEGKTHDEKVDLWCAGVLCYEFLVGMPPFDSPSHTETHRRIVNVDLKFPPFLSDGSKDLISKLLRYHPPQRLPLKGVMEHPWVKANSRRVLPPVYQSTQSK
T1 sequence (O13024 790-847 partner): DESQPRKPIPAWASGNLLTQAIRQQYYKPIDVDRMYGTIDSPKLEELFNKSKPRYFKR

Structure (SMILES) | IC50 [1] [nM] | IC50 (PTK2 enzyme) [nM]
COc1cc(C(=O)NC2CCN(C)CC2)ccc1Nc1ncc(C(F)(F)F)c(N[C@@H]2CCC[C@H]2NS(C)(=O)=O)n1 [Example I-126, 4-[4-((1R,2R)-2-methanesulphonylamino-cyclopentylamino)-5-trifluoromethyl-pyrimidin-2-ylamino]-3-methoxy-N-(1-methyl-piperidin-4-yl)-benzamide] | 265 | 0.9
COc1cc(C(=O)NC2CCN(C)CC2)c(Cl)cc1Nc1ncc(C(F)(F)F)c(N[C@@H]2CCCC[C@H]2N(C)S(C)(=O)=O)n1 [Example I-128] | > 5000 | 0.79
COCCNC(=O)c1cc(OC)c(Nc2ncc(C(F)(F)F)c(N[C@@H]3CCCC[C@H]3N(C)S(C)(=O)=O)n2)cc1C [Example I-133] | 2190 | 0.91
CNC(=O)c1cc(OC)c(Nc2ncc(C(F)(F)F)c(N[C@@H]3CCCC[C@H]3N(C)S(C)(=O)=O)n2)cc1Cl [Example I-135] | 1030 | 1
COc1cc(CN(C)C)ccc1Nc1ncc(C(F)(F)F)c(N[C@@H]2CCCC[C@H]2N(C)S(C)(=O)=O)n1 [Example I-147] | 332 | 0.9
COc1cc(CN2CCN(C)CC2)ccc1Nc1ncc(C(F)(F)F)c(N[C@@H]2CCCC[C@H]2N(C)S(C)(=O)=O)n1 [Example I-148] | 707 | 0.95
COc1cc(C(=O)NC2CCN(C)CC2)c(C)cc1Nc1ncc(Cl)c(N[C@@H]2CCCC[C@H]2N(C)S(C)(=O)=O)n1 [Example I-164] | 3360 | 1
COc1cc(NC(C)=O)ccc1Nc1ncc(C(F)(F)F)c(N[C@@H]2CCCC[C@H]2N(C)S(C)(=O)=O)n1 [Example I-165] | 167 | 4
